{"source": "patent US8710098B2", "about": "“Group of amino substituted benzoyl derivatives and their preparation and their use” (priority 2008, dated 2014)", "key": {"[1]": {"target": "T1, hA3G degradation mediated by HIV-1 Vif (UniProt P69723+Q9HC16)", "T1 construct": "expressed in transfected cells", "T1 sequence (P69723 whole entry, the tested form may be a part)": "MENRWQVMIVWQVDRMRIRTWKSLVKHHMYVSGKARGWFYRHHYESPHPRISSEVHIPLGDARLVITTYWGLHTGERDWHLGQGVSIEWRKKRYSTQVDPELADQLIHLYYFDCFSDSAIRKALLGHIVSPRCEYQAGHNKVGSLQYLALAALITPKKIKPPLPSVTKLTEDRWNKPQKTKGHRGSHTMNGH", "T1 sequence (Q9HC16 whole entry, the tested form may be a part)": "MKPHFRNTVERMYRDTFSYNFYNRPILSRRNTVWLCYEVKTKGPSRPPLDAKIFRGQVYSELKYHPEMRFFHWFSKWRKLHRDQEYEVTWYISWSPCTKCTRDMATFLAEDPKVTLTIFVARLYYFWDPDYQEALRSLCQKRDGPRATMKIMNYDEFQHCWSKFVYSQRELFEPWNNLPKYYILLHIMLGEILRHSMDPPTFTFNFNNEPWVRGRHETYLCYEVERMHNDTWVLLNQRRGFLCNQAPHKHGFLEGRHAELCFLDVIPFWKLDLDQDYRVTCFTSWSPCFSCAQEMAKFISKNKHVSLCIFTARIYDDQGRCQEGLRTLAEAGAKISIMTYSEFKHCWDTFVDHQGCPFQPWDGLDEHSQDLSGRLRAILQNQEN", "assay": "Screening experiment for up-regulation activity to hA3G (YFP-fused hA3G co-expressed with HIV-1 Vif, fluorescence)", "format": "cell-based, human", "conditions": "YFP fluorescence of cells co-expressing Vif and hA3G-YFP; excitation 485 nm, detection 520 nm; averages of duplicates", "source_text": "Based on the advances making research on the hA3G degradation mediated by HIV-1 Vif, this invention establishes a high throughput anti-HIV-1 drug screening model using hA3G degradation mediated by HIV-1 Vif as target, to screen small molecule active compounds capable of inhibiting this degradation process. The function principle of this model is that HIV-1 Vif protein and hA3G fused yellow fluorescent protein (YFP) co-expressed in the cells, then the intracellular fluorescence intensity (at […]) decreases owing to the degradation of hA3G caused by Vif and subsequent degradation of YEP fused on hA3G. By means of measuring the change of fluorescent intensity, the influence of the screened compounds on the degradation of hA3G caused by Vif can quantitatively be analyzed. Simultaneously, to differentiate the non-specific inhibitory effect of diverse ubiquitin degradation route in the samples, this invention establishes a recheck model based on the detection of P53 degradation caused by the product of adenovirus early gene, to assure that the positive samples screened out by the proposed model can specifically block the degradation of hA3G caused by Vif.\nScreening Experiment for Up-Regulation Activity to hA3G\nThe cells are picked up and cultured a culture bottle. When the cells grow full of the culture bottle, old culture medium is discarded and the cells are digested with digestion medium. When the cells turn round, the digestion medium is discarded and the culture medium is added in at once, the bottom of the bottle is gently blown with a pipette to make the cells disengage the bottle bottom and disperse into single cell suspension. After counting the cells using blood cell counting chamber, the cell suspension is inoculated into a culture dish for transfection. The medium containing the plasmid to be transfected and the transfection reagents is gently mixed up and incubated at room temperature. The medium is then added into the supernatant of the cell culture and cultured for a certain period of time. The old culture medium is then sucked out, the cells are digested with digestive medium, the digestive medium is subsequently discarded and culture medium is immediately added. The medium is gently blown to disperse the cells into single cell suspension. After counting the cells using blood cell counting chamber, the cells are ready for inoculation.\nSamples of compounds[…]Pure tested compounds are dissolved in DMSO, the solution is diluted with equal proportional distilled water. The diluent is used to test the cell systems.\nSample solution of different concentration is added into the supernatant of a cell culture. After the cells are continuously cultured, old culture medium is sucked out and the cells are blown with PBS buffer until the cells completely disengage from the culture bottle.\nThe fluorescence intensity values of the cell suspension with test compound samples, positive control samples and negative control samples are respectively measured with fluorometer, the excitation wavelength is 485 nm and the detection wavelength 520 nm. Averages of duplicated measurements are taken as the results.\nThe measured fluorescence intensity values of the negative control samples (blink sample) subtracted from those of test compound samples, the results are taken as YFP fluorescence of different groups. Relative fluorescence intensity=fluorescence intensity of a test sample group/fluorescence intensity of the positive control group×100% Inhibition rate of degradation=(test sample group−negative control group)/(positive control group−negative control group)×100%"}, "[2]": {"tested_on": "HIV-1", "conditions": "HIV-1 P24 antigen in supernatant 4 days (96 h) after addition of compounds", "procedure": "The inhibitory activities of the compounds proposed in this invention to HIV-1 were measured using HIV-1 P24 antigen kit.\nDMSO solutions of samples of test compounds listed in Table 2 diluted to 8 different concentrations and the solution of the positive control AZT (azidothymidine, 0.15 ng/ml) are respectively added into 96 well plates, duplications are set for each of the dilutions, and negative control samples are also made. Aliquots of 100 μl 2×10^5 cell/ml suspension are inoculated onto the 96 well cell culture plates and cultured in an incubator under a condition of 37° C., 5% CO2 and saturated humidity. The pathologic changes of the cells are observed every day. The HIV-1 P24 antigen contents in supernatant cells are measured in 4 days (96 h) after addition of the test compounds according to the operation procedure provided by the HIV-1 P24 antigen kit."}}, "data": [{"smiles": "COc1ccc(C(=O)Oc2cc(OC)c(OC)c(OC)c2)cc1N", "note": "[Compound 352, 3′,4′,5′-trimethoxyphenyl 3-amino-4-methoxybenzoate]", "values": [{"measurement": "hA3G up-regulation activity (%)", "setting": "[1]", "result": 37.0, "unit": "%"}, {"measurement": "inhibitory activity to HIV-1, IC50", "setting": "[2]", "result": 0.0554, "unit": "µg/mL"}]}]}
